Results from patent publication US3984440A, “Polyene compounds” (Hoffmann-La Roche Inc., priority 1973, dated 1976).

What was measured:
[1] = tested on: papillomas induced with dimethyl-benzanthracene and croton oil; experiment: papilloma test: regression of tumors induced with dimethyl-benzanthracene and croton oil; assay type: in vivo; conditions: mice, intraperitoneal, 400mg/kg/week, within two weeks
Description: The polyene compounds of formula I are useful in the topical and systemic prophylaxis and treatment of benignant and malignant neoplasias and premalignant lesions. The tumor-inhibiting activity of the polyene compounds of the invention is significant. […] The diameter of such papillomas in mice decreased by 55% within two weeks upon intraperitoneal administration of 400mg/kg/week of 9-(2,2,5,7,8-pentamethyl-chroman-6-yl)-3,7-dimethyl-nona-2,4,6,8-tetraen-1-oic acid.

[2] = acute toxicity after intraperitoneal administration in rape oil; conditions: mouse, in vivo, ip

In the case of `CC(/C=C/c1c(C)c(C)c2c(c1C)CCC(C)(C)O2)=C\C=C\C(C)=C\C(=O)O` [9-(2,2,5,7,8-pentamethyl-chroman-6-yl)-3,7-dimethyl-nona-2,4,6,8-tetraen-1-oic acid], the “decrease of diameter of papillomas” value [1] is reported as 55%, the LD50 [2] is reported as 950 mg/kg and the LD50 at 24 h [2] is reported as > 4000 mg/kg. For the same compound, the LD50 at 240 h [2] was 950 mg/kg and the LD50 at 480 h [2] was 950 mg/kg.
